Three molecules from patent US6410735B1, “1-(4-arylpiperazin-1-y1)-ω-[N-(α,ω-dicarboximido)]-alkanes useful as uro-selective α1-adrenoceptor blockers” (Ranbaxy Laboratories Limited, priority 1997, dated 2002) can be followed below.

The target of assay [1] is T1, α1B-adrenoceptor (spleen) (Rattus norvegicus, UniProt P15823).
T1 construct: Aorta, prostate and spleen tissues were isolated from urethane anaesthetized (1.5 gm/kg) male wistar rats; from tissue; host or cells: isolated spleen of male Wistar rats
T1 sequence (P15823 1-515): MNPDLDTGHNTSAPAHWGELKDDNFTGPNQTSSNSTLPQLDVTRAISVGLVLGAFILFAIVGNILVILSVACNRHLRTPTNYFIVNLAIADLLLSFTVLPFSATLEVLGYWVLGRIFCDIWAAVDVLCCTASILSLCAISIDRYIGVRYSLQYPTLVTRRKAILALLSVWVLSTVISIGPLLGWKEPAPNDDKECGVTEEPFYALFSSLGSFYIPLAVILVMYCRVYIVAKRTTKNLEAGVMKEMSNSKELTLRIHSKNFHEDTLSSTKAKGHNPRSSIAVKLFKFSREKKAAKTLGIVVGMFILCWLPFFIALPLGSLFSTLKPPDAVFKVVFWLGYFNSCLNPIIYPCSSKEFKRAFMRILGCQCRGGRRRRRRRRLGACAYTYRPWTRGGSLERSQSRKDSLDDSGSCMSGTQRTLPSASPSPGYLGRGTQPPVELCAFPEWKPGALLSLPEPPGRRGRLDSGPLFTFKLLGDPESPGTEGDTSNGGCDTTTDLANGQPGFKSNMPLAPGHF
Description: In vitro functional assay, phenylephrine-induced contraction of isolated spleen. To be noted: rat spleen, phenylephrine; read-out: In Vitro Functional Assay (pKB) α1B (converted). It counts as cell-based. An excerpt: (§1) In order to study selectivity of action of the present compounds towards different α-adrenoceptor subtypes, the ability of these compounds to antagonize α1-adrenoceptor agonist induced contractile response of aorta (α1D), prostate (α1A) and spleen (α1B) was studied. Aorta, prostate and spleen tissues were isolated from urethane anaesthetized (1.5 gm/kg) male wistar rats. Isolated tissues were mounted in organ bath containing Krebs Henseleit buffer of the following composition (mM): NaCl 118; KCl 4.7; CaCl2 2.5; MgSO4·H2O 1.2; NaHCO3 25; KH2PO4 1.2; glucose 11.5. Buffer was maintained at 37° C. and aerated with a mixture of 95% O2 and 5% CO2. A resting tension of 2 g (aorta) or 1 g (spleen and prostate) was applied to tissues. Contractile response was monitored using a force displacement transducer and recorded on chart recorders. Tissues were allowed to equilibrate for 2 hours. At the end of equilibration period, concentration response curves to norepinephrine (aorta) and phenylephrine (spleen and prostate) were obtained in the absence and presence of the tested compound (at concentrations of 0.1, 1 and 10 μM). Antagonist affinity was calculated and expressed as PKB values in Table 1.

The target in the next assay is T2, α1B-adrenoceptor (Rattus norvegicus, UniProt P15823).
T2 construct: from tissue; host or cells: rat liver membranes
T2 sequence (P15823 1-515): T1 sequence (P15823 1-515)
Kind of assay: Receptor binding assay, [3H]prazosin, rat liver membranes. Conditions: rat liver membranes, 0.5 nM [3H]prazosin; read-out: RBA (Ki nM) α1B. As to the method:
Receptor binding assays, (RBA's) were performed for native α1-adrenoceptors. Rat submaxillary and rat liver membrane preparations were used to assess the affinity for α1A and α1B subtypes, respectively. Aliquots of membrane protein ([…]) were incubated in a final volume of […] assay buffer (50 mM Tris, 0.5 mM EDTA at pH 7.4) with 0.5 nM [^3H] prazosin for 60 mins at 28 ° C. Reaction was stopped by rapid filtration on Millipore filters. Filters were dried and bound radioactivity counted. Non-specific binding was determined in the presence of 0.3 mM prazosin.

Assay [2] addresses T3, α1A-adrenoceptor (prostate) (Rattus norvegicus, UniProt P43140).
T3 construct: Aorta, prostate and spleen tissues were isolated from urethane anaesthetized (1.5 gm/kg) male wistar rats; from tissue; host or cells: isolated prostate of male Wistar rats
T3 sequence (P43140 1-466): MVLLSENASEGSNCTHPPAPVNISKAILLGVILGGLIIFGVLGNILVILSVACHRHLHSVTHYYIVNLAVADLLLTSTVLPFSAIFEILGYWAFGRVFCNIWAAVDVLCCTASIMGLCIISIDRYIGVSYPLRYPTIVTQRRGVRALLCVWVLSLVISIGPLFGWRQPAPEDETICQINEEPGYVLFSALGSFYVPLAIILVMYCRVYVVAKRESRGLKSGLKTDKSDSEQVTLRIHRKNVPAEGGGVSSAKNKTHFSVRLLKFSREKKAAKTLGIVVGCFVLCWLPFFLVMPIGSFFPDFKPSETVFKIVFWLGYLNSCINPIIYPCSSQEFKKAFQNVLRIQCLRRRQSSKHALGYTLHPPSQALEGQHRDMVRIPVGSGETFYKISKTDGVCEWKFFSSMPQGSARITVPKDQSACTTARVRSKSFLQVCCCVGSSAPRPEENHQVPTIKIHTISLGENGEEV
Description: In vitro functional assay, phenylephrine-induced contraction of isolated prostate. The class given is cell-based. To be noted: rat prostate, phenylephrine; read-out: In Vitro Functional Assay (pKB) α1A (converted).
Text: as §1

The target of another assay is T4, α1D-adrenoceptor (aorta) (Rattus norvegicus, UniProt P23944).
T4 construct: Aorta, prostate and spleen tissues were isolated from urethane anaesthetized (1.5 gm/kg) male wistar rats; from tissue; host or cells: isolated aorta of male Wistar rats
T4 sequence (P23944 1-561): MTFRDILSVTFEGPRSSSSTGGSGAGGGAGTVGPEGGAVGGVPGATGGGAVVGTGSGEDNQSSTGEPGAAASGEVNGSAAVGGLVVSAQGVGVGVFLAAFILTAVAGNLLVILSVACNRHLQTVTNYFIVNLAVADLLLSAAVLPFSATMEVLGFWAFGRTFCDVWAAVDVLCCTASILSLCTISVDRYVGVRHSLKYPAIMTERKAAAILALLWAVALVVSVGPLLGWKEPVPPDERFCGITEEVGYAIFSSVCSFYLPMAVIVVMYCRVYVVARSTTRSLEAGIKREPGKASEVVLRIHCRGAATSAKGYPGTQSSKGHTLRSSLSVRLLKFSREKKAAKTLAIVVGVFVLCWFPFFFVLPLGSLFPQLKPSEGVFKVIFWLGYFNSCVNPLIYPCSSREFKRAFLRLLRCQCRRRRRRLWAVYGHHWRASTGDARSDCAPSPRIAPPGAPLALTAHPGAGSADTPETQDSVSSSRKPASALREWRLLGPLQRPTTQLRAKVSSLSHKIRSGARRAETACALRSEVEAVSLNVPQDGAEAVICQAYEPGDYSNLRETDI
Kind of assay: In vitro functional assay, norepinephrine-induced contraction of isolated aorta. The class given is cell-based. To be noted: rat aorta, norepinephrine; read-out: In Vitro Functional Assay (pKB) α1D (converted).
Text: as §1

On to `COc1ccccc1N1CCN(CCCN2C(=O)CCC2=O)CC1` [Compound 2, 1-[4-(2-Methoxyphenyl)piperazin-1-yl]3-(2,5-dioxopyrrolidin-1-yl)propane], for which the Kb in assay [1] was 25.1 nM; in assay [2] it was 2 nM; at α1D-adrenoceptor (aorta), 50.1 nM. In addition, the Ki – broadly, the dissociation constant of the complex between target and ligand, obtained from inhibition or displacement – at α1B-adrenoceptor was 244 nM.

Turning to `COc1ccccc1N1CCN(CCCCN2C(=O)CCC2=O)CC1` [Compound 9, 1-[4-(2-Methoxyphenyl)piperazin-1-yl]-4-(2,5-dioxopyrrolidin-1-yl)butane], the results for the Kb (in assay [1]; in assay [2]; on α1D-adrenoceptor (aorta)) were 10 nM, 1 nM and 5.01 nM, respectively. Besides, the Ki at α1B-adrenoceptor was 35 nM.

Take `COc1ccccc1N1CCN(CCCN2C(=O)CCCC2=O)CC1` [Compound 13, 1-[4-(2-Methoxyphenyl)piperazin-1-yl]-3-(2,6-dioxopiperidin-1-yl)propane]: the figures for the Kb (in assay [1]; in assay [2]; on α1D-adrenoceptor (aorta)) were 10 nM, 2.51 nM and 12.6 nM, respectively. On α1B-adrenoceptor, the Ki turned out to be 168 nM.
